Source: ChEMBL document CHEMBL1201862, “PubChem BioAssay data set” (2004)
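Each compound was tested at five concentrations against cells in 96-well plates for 48 hours. At the GI50, growth is halved.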 Active and inactive are the calls of the source. No stated cut-off is given here; in the data, active = GI50 up to about 1.1 µM and inactive = higher.

Legend:
Experiment in all cases: NCI tumour cell line growth inhibition, 48 h
NCI-H23 = test system: NCI-H23
HT-29 = test system: HT-29
RPMI-8226 = test system: RPMI-8226
UO-31 = test system: UO-31
SF-539 = test system: SF-539
SF-268 = test system: SF-268
ACHN = test system: ACHN
NCI-H460 = test system: NCI-H460
DMS-273 = test system: DMS-273
KM12 = test system: KM12
HCT-116 = test system: HCT-116
OVCAR-5 = test system: OVCAR-5
M19-MEL = test system: M19-MEL
DMS-114 = test system: DMS-114
SR = test system: SR
OVCAR-4 = test system: OVCAR-4
OVCAR-8 = test system: OVCAR-8
TK-10 = test system: TK-10
786-0 = test system: 786-0
HL-60 = test system: HL-60
RXF 393 = test system: RXF 393
CAKI-1 = test system: CAKI-1
SK-OV-3 = test system: SK-OV-3
SK-MEL-5 = test system: SK-MEL-5
SK-MEL-28 = test system: SK-MEL-28
EKVX = test system: EKVX
NCI-H226 = test system: NCI-H226
K562 = test system: K562
LOX IMVI = test system: LOX IMVI
KM-20L2 = test system: KM-20L2
COLO 205 = test system: COLO 205
UACC-257 = test system: UACC-257
U-251 = test system: U-251
SW-620 = test system: SW-620
SNB-78 = test system: SNB-78
HCC 2998 = test system: HCC 2998
MOLT-4 = test system: MOLT-4
HOP-62 = test system: HOP-62
A549 = test system: A549
OVCAR-3 = test system: OVCAR-3
HCT-15 = test system: HCT-15
A498 = test system: A498
DLD-1 = test system: DLD-1
SF-295 = test system: SF-295
IGROV-1 = test system: IGROV-1
SNB-19 = test system: SNB-19
SN12C = test system: SN12C
SK-MEL-2 = test system: SK-MEL-2
Malme-3M = test system: Malme-3M
SNB-75 = test system: SNB-75
M14 = test system: M14
PC-3 = test system: PC-3
MDA-MB-435 = test system: MDA-MB-435
Hs-578T = test system: Hs-578T
MCF7 = test system: MCF7
CCRF-CEM = test system: CCRF-CEM
HOP-92 = test system: HOP-92
BT-549 = test system: BT-549
UACC-62 = test system: UACC-62
MDA-MB-231 = test system: MDA-MB-231
DU-145 = test system: DU-145
NCI-H522 = test system: NCI-H522
T47D = test system: T47D
MDA-N = test system: MDA-N
NCI/ADR-RES = test system: NCI/ADR-RES

N#Cc1c(CC(=O)O)cc(=O)n2c1[nH]c1ccccc12
GI50 (NCI-H23): > 100 µM (inactive) | GI50 (HT-29): > 100 µM (inactive) | GI50 (RPMI-8226): > 100 µM (inactive) | GI50 (UO-31): > 100 µM (inactive) | GI50 (SF-539): > 100 µM (inactive) | GI50 (SF-268): > 100 µM (inactive) | GI50 (ACHN): > 100 µM (inactive) | GI50 (NCI-H460): > 100 µM (inactive) | GI50 (DMS-273): > 100 µM (inactive) | GI50 (KM12): > 100 µM (inactive) | GI50 (HCT-116): > 100 µM (inactive) | GI50 (OVCAR-5): > 100 µM (inactive) | GI50 (M19-MEL): > 100 µM (inactive) | GI50 (DMS-114): > 100 µM (inactive) | GI50 (SR): > 100 µM (inactive) | GI50 (OVCAR-4): > 100 µM (inactive) | GI50 (OVCAR-8): > 100 µM (inactive) | GI50 (TK-10): > 100 µM (inactive) | GI50 (786-0): > 100 µM (inactive) | GI50 (HL-60): > 100 µM (inactive) | GI50 (RXF 393): > 100 µM (inactive) | GI50 (CAKI-1): > 100 µM (inactive) | GI50 (SK-OV-3): > 100 µM (inactive) | GI50 (SK-MEL-5): > 100 µM (inactive) | GI50 (SK-MEL-28): > 100 µM (inactive) | GI50 (EKVX): > 100 µM (inactive) | GI50 (NCI-H226): > 100 µM (inactive) | GI50 (K562): > 100 µM (inactive) | GI50 (LOX IMVI): > 100 µM (inactive) | GI50 (KM-20L2): > 100 µM (inactive) | GI50 (COLO 205): > 100 µM (inactive) | GI50 (UACC-257): > 100 µM (inactive) | GI50 (U-251): > 100 µM (inactive) | GI50 (SW-620): > 100 µM (inactive) | GI50 (SNB-78): > 100 µM (inactive) | GI50 (HCC 2998): > 100 µM (inactive) | GI50 (MOLT-4): > 100 µM (inactive) | GI50 (HOP-62): > 100 µM (inactive) | GI50 (A549): > 100 µM (inactive) | GI50 (OVCAR-3): > 100 µM (inactive) | GI50 (HCT-15): > 100 µM | GI50 (A498): > 100 µM (inactive) | GI50 (DLD-1): > 100 µM (inactive) | GI50 (SF-295): > 100 µM (inactive) | GI50 (IGROV-1): > 100 µM (inactive) | GI50 (SNB-19): > 100 µM (inactive) | GI50 (SN12C): > 100 µM (inactive) | GI50 (SK-MEL-2): > 100 µM (inactive) | GI50 (Malme-3M): > 100 µM (inactive) | GI50 (SNB-75): > 100 µM (inactive) | GI50 (M14): > 100 µM (inactive)

CN(C)Cc1cc(C(C)(C)C)ccc1-c1ccc(C(C)(C)C)cc1CN(C)C
GI50 (NCI-H23): > 100 µM (inactive) | GI50 (HT-29): 35 µM (inactive) | GI50 (RPMI-8226): 39.9 µM (inactive) | GI50 (UO-31): 81.3 µM (inactive) | GI50 (SF-539): > 100 µM (inactive) | GI50 (PC-3): 43.7 µM (inactive) | GI50 (SF-268): > 100 µM (inactive) | GI50 (ACHN): > 100 µM (inactive) | GI50 (NCI-H460): 96.8 µM (inactive) | GI50 (KM12): > 100 µM (inactive) | GI50 (HCT-116): > 100 µM (inactive) | GI50 (OVCAR-5): > 100 µM (inactive) | GI50 (MDA-MB-435): 84.3 µM (inactive) | GI50 (SR): > 100 µM (inactive) | GI50 (Hs-578T): > 100 µM (inactive) | GI50 (OVCAR-4): > 100 µM (inactive) | GI50 (OVCAR-8): > 100 µM (inactive) | GI50 (TK-10): > 100 µM (inactive) | GI50 (786-0): > 100 µM (inactive) | GI50 (HL-60): > 100 µM (inactive) | GI50 (RXF 393): > 100 µM (inactive) | GI50 (MCF7): 66.7 µM (inactive) | GI50 (CAKI-1): > 100 µM (inactive) | GI50 (SK-OV-3): > 100 µM (inactive) | GI50 (SK-MEL-5): > 100 µM (inactive) | GI50 (SK-MEL-28): 41.1 µM (inactive) | GI50 (CCRF-CEM): 56.8 µM (inactive) | GI50 (HOP-92): > 100 µM (inactive) | GI50 (EKVX): 62.2 µM (inactive) | GI50 (NCI-H226): > 100 µM (inactive) | GI50 (K562): 40.7 µM (inactive) | GI50 (LOX IMVI): > 100 µM (inactive) | GI50 (COLO 205): 64.3 µM (inactive) | GI50 (UACC-257): 37.1 µM (inactive) | GI50 (U-251): 77.8 µM (inactive) | GI50 (SW-620): > 100 µM (inactive) | GI50 (BT-549): > 100 µM (inactive) | GI50 (UACC-62): > 100 µM (inactive) | GI50 (HCC 2998): 10.2 µM (inactive) | GI50 (MOLT-4): > 100 µM (inactive) | GI50 (HOP-62): > 100 µM (inactive) | GI50 (A549): > 100 µM (inactive) | GI50 (MDA-MB-231): > 100 µM (inactive) | GI50 (OVCAR-3): 43.3 µM (inactive) | GI50 (HCT-15): > 100 µM | GI50 (A498): 75.3 µM (inactive) | GI50 (SF-295): > 100 µM (inactive) | GI50 (IGROV-1): > 100 µM (inactive) | GI50 (SNB-19): > 100 µM (inactive) | GI50 (SN12C): > 100 µM (inactive) | GI50 (DU-145): > 100 µM (inactive) | GI50 (NCI-H522): 57.8 µM (inactive) | GI50 (SK-MEL-2): > 100 µM (inactive) | GI50 (Malme-3M): 51.9 µM (inactive) | GI50 (SNB-75): 88.1 µM (inactive) | GI50 (T47D): > 100 µM (inactive) | GI50 (MDA-N): > 100 µM (inactive) | GI50 (M14): 41.6 µM (inactive) | GI50 (NCI/ADR-RES): > 100 µM (inactive)

CN(C)CCCN1CCC2(CCC(C(C)(C)C)CC2)CC1
GI50 (NCI-H23): 7.48 µM (inactive) | GI50 (HT-29): 0.409 µM (active) | GI50 (RPMI-8226): 1.25 µM (inactive) | GI50 (UO-31): 1.56 µM (inactive) | GI50 (SF-539): 1.88 µM (inactive) | GI50 (PC-3): 2.52 µM (inactive) | GI50 (SF-268): 2.32 µM (inactive) | GI50 (ACHN): 7.05 µM (inactive) | GI50 (NCI-H460): 0.8 µM (active) | GI50 (KM12): 2.38 µM (inactive) | GI50 (HCT-116): 1.56 µM (inactive) | GI50 (OVCAR-5): 3.08 µM (inactive) | GI50 (MDA-MB-435): 0.47 µM (active) | GI50 (SR): 1.42 µM (inactive) | GI50 (Hs-578T): 1.89 µM (inactive) | GI50 (OVCAR-4): 6.31 µM (inactive) | GI50 (OVCAR-8): 3.8 µM (inactive) | GI50 (TK-10): 1.66 µM (inactive) | GI50 (786-0): 1.54 µM (inactive) | GI50 (HL-60): 0.603 µM (active) | GI50 (RXF 393): 1.6 µM (inactive) | GI50 (MCF7): 1.65 µM (inactive) | GI50 (CAKI-1): 2.72 µM (inactive) | GI50 (SK-OV-3): 9.29 µM (inactive) | GI50 (SK-MEL-5): 1.61 µM (inactive) | GI50 (SK-MEL-28): 1.77 µM (inactive) | GI50 (CCRF-CEM): 1.58 µM (inactive) | GI50 (HOP-92): 3.18 µM (inactive) | GI50 (EKVX): 5.33 µM (inactive) | GI50 (NCI-H226): 6.82 µM (inactive) | GI50 (K562): 0.266 µM (active) | GI50 (LOX IMVI): 1.42 µM (inactive) | GI50 (COLO 205): 1.51 µM (inactive) | GI50 (UACC-257): 1.41 µM (inactive) | GI50 (U-251): 1.76 µM (inactive) | GI50 (SW-620): 2.4 µM (inactive) | GI50 (BT-549): 11.3 µM (inactive) | GI50 (UACC-62): 1.88 µM (inactive) | GI50 (HCC 2998): 0.21 µM (active) | GI50 (MOLT-4): 1.77 µM (inactive) | GI50 (HOP-62): 2.15 µM (inactive) | GI50 (A549): 3.27 µM (inactive) | GI50 (MDA-MB-231): 1.91 µM (inactive) | GI50 (OVCAR-3): 3.1 µM (inactive) | GI50 (HCT-15): 2.22 µM | GI50 (A498): 2 µM (inactive) | GI50 (SF-295): 2.03 µM (inactive) | GI50 (IGROV-1): 4.01 µM (inactive) | GI50 (SNB-19): 3.27 µM (inactive) | GI50 (SN12C): 7.35 µM (inactive) | GI50 (DU-145): 6.71 µM (inactive) | GI50 (NCI-H522): 2.49 µM (inactive) | GI50 (SK-MEL-2): 1.75 µM (inactive) | GI50 (Malme-3M): 1.89 µM (inactive) | GI50 (SNB-75): 2.08 µM (inactive) | GI50 (T47D): 1.88 µM (inactive) | GI50 (MDA-N): 0.912 µM (active) | GI50 (M14): 1.85 µM (inactive) | GI50 (NCI/ADR-RES): 5.08 µM (inactive)
